According to ChEMBL document CHEMBL1201862, “PubChem BioAssay data set” (2004):
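Dose response: 5 concentrations. Exposure: 48 h. Format: 96-well plates. Endpoint: linear interpolation; highest concentration if not reached. GI50 is the concentration that inhibits growth by half.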 The source made the active and inactive calls. No stated cut-off is given here; in the data, active = GI50 up to about 1.1 µM and inactive = higher.

Key:
Experiment in all cases: inhibition of tumour cell growth, NCI panel, 48 h
[1] = tested on: 786-0
[2] = tested on: A498
[3] = tested on: A549
[4] = tested on: ACHN
[5] = tested on: BT-549
[6] = tested on: CAKI-1
[7] = tested on: CCRF-CEM
[8] = tested on: COLO 205
[9] = tested on: DU-145
[10] = tested on: EKVX
[11] = tested on: HCC 2998
[12] = tested on: HCT-116
[13] = tested on: HCT-15
[14] = tested on: HL-60
[15] = tested on: HOP-62
[16] = tested on: HOP-92
[17] = tested on: HT-29
[18] = tested on: Hs-578T
[19] = tested on: IGROV-1
[20] = tested on: K562
[21] = tested on: KM12
[22] = tested on: LOX IMVI
[23] = tested on: M14
[24] = tested on: MCF7
[25] = tested on: MDA-MB-231
[26] = tested on: MDA-MB-435
[27] = tested on: MDA-N
[28] = tested on: MOLT-4
[29] = tested on: Malme-3M
[30] = tested on: NCI-H226
[31] = tested on: NCI-H23
[32] = tested on: NCI-H460
[33] = tested on: NCI-H522
[34] = tested on: NCI/ADR-RES
[35] = tested on: OVCAR-3
[36] = tested on: OVCAR-4
[37] = tested on: OVCAR-5
[38] = tested on: OVCAR-8
[39] = tested on: PC-3
[40] = tested on: RPMI-8226
[41] = tested on: RXF 393
[42] = tested on: SF-268
[43] = tested on: SF-295
[44] = tested on: SF-539
[45] = tested on: SK-MEL-28
[46] = tested on: SK-MEL-2
[47] = tested on: SK-MEL-5
[48] = tested on: SK-OV-3
[49] = tested on: SN12C
[50] = tested on: SNB-19
[51] = tested on: SW-620
[52] = tested on: T47D
[53] = tested on: TK-10
[54] = tested on: U-251
[55] = tested on: UACC-257
[56] = tested on: UACC-62
[57] = tested on: UO-31
[58] = tested on: SNB-75

Measured: GI50

CCCCCc1cccc(=O)o1
inactive: [1] > 100 µM | [2] 57.9 µM | [3] > 100 µM | [4] > 100 µM | [5] > 100 µM | [6] > 100 µM | [7] > 100 µM | [8] > 100 µM | [9] > 100 µM | [10] > 100 µM | [11] > 100 µM | [12] > 100 µM | [14] > 100 µM | [15] > 100 µM | [16] 44.2 µM | [17] > 100 µM | [18] > 100 µM | [19] > 100 µM | [20] > 100 µM | [21] > 100 µM | [22] > 100 µM | [23] > 100 µM | [24] > 100 µM | [25] > 100 µM | [26] > 100 µM | [27] > 100 µM | [28] > 100 µM | [29] > 100 µM | [30] > 100 µM | [31] > 100 µM | [32] > 100 µM | [33] > 100 µM | [34] > 100 µM | [35] > 100 µM | [36] > 100 µM | [37] > 100 µM | [38] > 100 µM | [39] > 100 µM | [40] > 100 µM | [41] > 100 µM | [42] > 100 µM | [43] > 100 µM | [44] > 100 µM | [45] > 100 µM | [46] > 100 µM | [47] > 100 µM | [48] > 100 µM | [49] > 100 µM | [50] > 100 µM | [51] > 100 µM | [52] > 100 µM | [53] > 100 µM | [54] > 100 µM | [55] > 100 µM | [56] > 100 µM | [57] > 100 µM
> 100 µM: [13]

CC(=O)Nc1ccc2c(c1)/C(=C\c1ccc([N+](C)(C)C)cc1)c1ccccc1-2
> 100 µM: [13]
inactive: [1] 77.8 µM | [2] 42.1 µM | [3] 33.7 µM | [4] > 100 µM | [5] 34.3 µM | [6] > 100 µM | [7] 22.5 µM | [8] 18 µM | [9] 89.3 µM | [10] 26.5 µM | [11] 55.6 µM | [12] 85.3 µM | [14] 24.8 µM | [15] 48.3 µM | [16] 18.1 µM | [17] 35.5 µM | [18] 35.4 µM | [19] 35.4 µM | [20] 29.6 µM | [21] 31.9 µM | [22] 47.9 µM | [23] 16 µM | [24] 32 µM | [25] 4.43 µM | [26] 36.2 µM | [27] 32.8 µM | [28] 32.9 µM | [29] 39.3 µM | [30] 23.1 µM | [31] 64.4 µM | [32] 34.9 µM | [33] 32.9 µM | [34] > 100 µM | [35] 36.5 µM | [36] 35.3 µM | [37] 18.8 µM | [38] 41.7 µM | [39] 19.9 µM | [40] 24.9 µM | [41] > 100 µM | [42] 64.9 µM | [43] 46.1 µM | [45] 35.5 µM | [47] 24.2 µM | [48] 61.7 µM | [49] 31 µM | [50] 23.6 µM | [58] 28.1 µM | [51] 44.1 µM | [52] 23.2 µM | [53] > 100 µM | [54] 18.4 µM | [55] 30.6 µM | [56] 48 µM | [57] 29.6 µM
